Measurements published in US8466197B2, “Thiocarbonates as anti-inflammatory and antioxidant compounds useful for treating metabolic disorders” (Genmedica Therapeutics SL, priority 2010, dated 2013).

How the values were obtained:
[1] = In vitro cleavage studies: incubation with human liver S9 fraction, release of the NSAID; assay type: in vitro ADME; details: after 1 h of incubation
Method: Table 1 and 2 summarize in vitro data showing that thiocarbonate compounds are hydrolyzed in the presence of human liver S9 fraction and release the NSAID component, Diflunisal (Table 1) or salicylate (Table 2).
The compounds are incubated with human liver S9 fraction to study its metabolic stability and to profile and identify the forming metabolites. The basic incubation mixture of 500 μl in volume consisted of the following components: 1.5 mg of protein per ml, substrate in DMSO, 1 mM NADPH, 1 mM UDPGA, 1 mM PAPS and 1 mM GSH. The substrate concentration used was 2 μM. The final amount of DMSO in the incubation was 1% (v/v). Each reaction mixture was preincubated for 2 minutes at +37° C. The reaction was started by addition of cofactors. After an incubation of 60 min, a 100 μl sample was collected and the reaction was terminated by adding an equal volume of ice-cold acetonitrile. Samples were subsequently cooled in an ice bath for 15 minutes and analyzed. […] The samples are analyzed by HPLC/TOF-MS to monitor both the disappearance of the parent compound and formation of metabolites. […] In addition to ion source conditions optimised to produce molecular ions with high abundance, the samples from last time point (60 min) are analysed also using another parameters (higher aperture voltage) to generate high-resolution in-source fragment ion data. […]

[2] = Pharmacokinetic study: diflunisal levels in plasma after oral administration in mice; assay type: in vivo; details: 0.05 mmol/kg
Method: Diflunisal is detected in plasma of mice orally dosed with the compound described in Example 5 or the compound described in Example 8 (0.05 mmol/kg) (table 3).
Male cd-1 mice weighing 25-30 g are purchased from Charles River Laboratories Spain. The animals are housed in animal quarters at 22° C. with a 12-h light/12-h dark cycle and fed ad libitum. O/N fasted animals are dosed at […] with 0.05 mmol/kg of the indicated compound. […] Plasma was separated after centrifugation of blood and kept at −20° C. until metabolites determination.

db/db mice = experiment: Reduction of fasting glycemia in db/db mice; assay type: in vivo; details: db/db mice treated for two weeks with a daily dose, versus vehicle; t-test p less than 0.01 (FIG. 1)
Method: 5-weeks old male mice C57BL/Ks bearing the db/db mutation (The Jackson Laboratories) and 7-weeks old male mice C57BL/6 bearing the ob/ob mutation are purchased from Charles River Laboratories Spain (Sant Cugat del Vallès, Spain) are treated with compounds as disclosed herein for a month, administered by single oral injection. Glycemia levels are determined in blood from the Tail Vein, using a rapid glucose analyzer (Accu-Chek Aviva; Roche) 3 times per week, as well as body weight measure. The food and water intake is measured twice a week.
db/db mice were treated for two weeks with a daily dose of the compound of Example 8, (R)-2-acetamido-3-((2′,4′-difluoro-3-(propoxycarbonyl)biphenyl-4-yloxy)carbonylthio) propanoic acid, or with vehicle.

SMILES	Release of the NSAID (diflunisal or salicylate) on incubation in the presence of human liver S9 fraction [1]	Diflunisal detected in plasma of orally dosed mice [2]	Fasting glycemia (db/db mice)
COC(=O)c1ccccc1OC(=O)SC[C@H](NC(C)=O)C(=O)O [Example 2, (R)-2-Acetamido-3-((2-(methoxycarbonyl)phenoxy)carbonylthio)propanoic acid]	no diflunisal or salicylate has been detected		
CCCOC(=O)c1cc(-c2ccc(F)cc2F)ccc1OC(=O)SC[C@H](NC(C)=O)C(=O)O [Example 8, (R)-2-Acetamido-3-((2′,4′-difluoro-3-(propoxycarbonyl)biphenyl-4-yloxy)carbonylthio)propanoic acid]		detected	significantly reduced
CC(=O)N[C@@H](CSC(=O)Oc1ccccc1C(=O)OCc1ccccc1)C(=O)O [Example 4, (R)-2-Acetamido-3-((2-(benzyloxycarbonyl)phenoxy)carbonylthio) propanoic acid]	no diflunisal or salicylate has been detected		
COC(=O)c1cc(-c2ccc(F)cc2F)ccc1OC(=O)SCCC(NC(C)=O)C(=O)O (racemic) [Example 5, (+/−)-2-Acetamido-4-((2′,4′-difluoro-3-(methoxycarbonyl)biphenyl-4-yloxy)carbonylthio)butanoic acid]		detected	
